Laboratory results reported in patent US20250002492A1, “COMPOSITIONS OF FOLATE ABSORPTION INHIBITORS AND METHODS THEREOF” (THE TEXAS A&M UNIVERSITY SYSTEM, priority 2023, published 2025).

Legend:
[1] = target: T1, Folate Uptake Transporter (PCFT) in Caco2 cells (Homo sapiens, UniProt Q96NT5); assay: Folate uptake transporter inhibition in Caco2 cell line ([3H]-folic acid uptake); assay type: cell-based; conditions: for inhibition at 50 µM: Caco-2, pH 5.5, test conc. 50 μM, read-out: Percentage inhibition (%); for effect on folate transport / uptake: Caco-2 cells, 50 μM
T1 construct: These cells express high levels of the PCFT/SLC46A1 receptor; host or cells: Caco-2
T1 sequence (Q96NT5 1-459): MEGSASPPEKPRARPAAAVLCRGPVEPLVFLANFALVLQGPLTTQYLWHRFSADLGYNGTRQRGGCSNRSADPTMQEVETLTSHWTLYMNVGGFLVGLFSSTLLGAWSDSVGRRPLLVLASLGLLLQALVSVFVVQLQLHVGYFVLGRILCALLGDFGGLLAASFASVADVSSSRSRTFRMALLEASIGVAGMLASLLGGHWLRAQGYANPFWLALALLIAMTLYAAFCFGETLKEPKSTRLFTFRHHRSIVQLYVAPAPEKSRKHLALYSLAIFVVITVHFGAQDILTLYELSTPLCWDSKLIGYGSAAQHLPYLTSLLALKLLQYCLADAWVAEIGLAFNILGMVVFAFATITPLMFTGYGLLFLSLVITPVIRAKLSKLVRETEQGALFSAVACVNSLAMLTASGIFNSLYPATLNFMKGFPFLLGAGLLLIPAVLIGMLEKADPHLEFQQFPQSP
Method: Cell plates were prepared using Caco-2 cell culture medium consisting of Dulbecco's Modified Eagle's Medium (DMEM) with high glucose and L-glutamine supplemented with: 10% FBS, 1× penicillin-streptomycin mixture and 1×non-essential amino acids (NEAA) and medium was incubated at 37° C., 5% CO2 for 0.5 hour. Plates were prepared for cell seeding. Caco-2 cells from American Type Culture Collection at passage 44 were cultivated in T-75 flasks in a cell culture incubator set at 37° C., 5% CO2, 95% relative humidity. Cells reached 80-90% confluence before detaching and splitting. Cultivated cells in T-75 flasks were rinsed with 5 mL PBS and aspirated off. Then, 3 mL trypsin/EDTA was added, and cells were incubated at 37° C. for approximately 5 minutes or until the cells detached and floated. Trypsin/EDTA was inactivate by adding excess serum containing medium. Cell suspension was removed and transferred to a conical tube and cells were pelleted by centrifugation at 120×g for 5 minutes. Cells were resuspended in seeding medium at a density of 3×10^4 cells/well in 24-well plates. The plate was incubated for 8-10 days. The medium was replaced every other day, beginning no sooner than 48 hours after initial plating.
(§1) The transport buffer (HBSS with 10 mM MES, pH 5.5) was prepared by weighing 1.952 g of MES and 0.35 g sodium hydrogen carbonate and adding into 900 mL of pure water followed by sonication to dissolve the content. Following the transfer of 100 mL of 10×HBSS into the solution. The solution was placed on a stirrer, the pH was slowly adjusted with hydrochloric acid to 5.5, and then the solution was filtered to get HBSS solution (with 10 mM MES, pH 5.5).
The [3H]-folic acid (10 nM) substrate solution was prepared using [3H]-folic acid (1 mCi/ml) diluted with pH 5.5 buffer. Next, the [3H]-folic acid (10 nM) substrate solution+test inhibitor (X μM) and the [3H]-folic acid (10 nM) substrate solution+positive control inhibitor (pemetrexed, 50 μM) were prepared. For the solution without inhibitor, DMSO was diluted with corresponding substrate solution to get the working incubation solution.
The pre-incubation solution was prepared by adding the same final concentration of test compound (X μM) and the known inhibitor (pemetrexed, 50 μM) in pH 5.5 buffer. For the solution without inhibitor, DMSO diluted with in pH 5.5 buffer was used as the vehicle control.
When the 8-10 day Caco-2 cultured cells reached confluence and were differentiated, they were ready to be used for transport studies. The Caco-2 plate was removed from the incubator, and the medium was removed from the 24-well Plates. Next, cells were washed 3 times with 300 μL of pre-warmed pH 5.5 buffer. Then, 300 μL of pre-incubation solution was added into each well and the plate was placed at 37° C. for 30 minutes. The assay was performed in duplicate. After 30 minutes pre-incubation, the pre-incubation solution was aspirated, and 300 μL of pre-warmed working incubation solution was added to start the transporter assay. After 6 minutes incubation, cells were washed by quickly adding/aspirating 300 μL of ice-cold pH 5.5 buffer 4 times. The pH 5.5 buffer was removed and 300 μL of pure water was added into each well. Freeze-thaw in liquid nitrogen and 37° C. incubator was repeated for 3 times to lyse cells. After, centrifugation at 3,300 g was performed for 30 seconds. Next, 50 μL of supernatant was transferred to Isoplate-96 Microplate. 200 μL of scintillation fluid was added to the 50 μL sample and radioactivity was measured by liquid scintillation counting in a MicroBeta 2 scintillation counter for 1 min/sample.
A BCA Kit was used to determine the protein content for each well. Bovine serum albumin at 2, 1, 0.5, 0.25, 0.125, 0.0625, 0.0313, 0.0156, 0.00781 and 0.00391 mg/mL was prepared in Phosphate Buffer Saline (PBS, pH 7.4). 10 μL of supernatant was mixed from the previous step with the same volume of PBS. […]

[2] = target: T1, Folate Uptake Transporter (PCFT) in Caco2 cells; assay: Folate uptake transporter substrate assessment in Caco2 cell line (compound uptake with and without pemetrexed); assay type: in vitro ADME; conditions: for cell permeability: Caco-2; for Uptake Ratio(−Inhibitor/+Inhibitor): human, Caco-2, 6 min, 1 μM, pH 5.5
Method: Cell Plates were Prepared According to the Methods of Example 8 Using Caco-2 Cells from American Type Culture Collection at Passage 37.
as §1
The test compounds and folic acid (1 μM) substrate solutions were prepared by diluting with pH 5.5 buffer. Next, the test compounds and folic acid (1 μM) substrate solution+positive control inhibitor (pemetrexed, 50 μM) were prepared. For the solution without inhibitor, DMSO was diluted with corresponding substrate solution to get the working incubation solution.
For the solution with inhibitor, the pre-incubation solution was prepared by adding the positive control inhibitor (pemetrexed, 50 μM) in pH 5.5 buffer. For the solution without inhibitor, DMSO was diluted with pH 5.5 buffer and used as the vehicle control.
When the 8-10 day Caco-2 cultured cells reached confluence and were differentiated, they were ready to be used for transport studies. The Caco-2 plate was removed from the incubator, and the medium was removed from the 24-well Plates. Next, cells were washed 3 times with 300 μL of pre-warmed pH 5.5 buffer. Then, 300 μL of pre-incubation solution was added into each well and the plate was placed at 37° C. for 30 minutes. The assay was performed in duplicate. After 30 minutes pre-incubation, the pre-incubation solution was aspirated, and 300 μL of pre-warmed working incubation solution was added to start the transporter assay. After 6 minutes incubation, cells were washed by quickly adding/aspirating 300 μL of ice-cold pH 5.5 buffer 4 times. The pH 5.5 buffer was removed and 300 μL of pure water was added into each well. Freeze-thaw in liquid nitrogen and 37° C. incubator was repeated for 3 times to lyse cells. After, centrifugation at 3,300 g was performed for 30 seconds. Next, 50 μL of supernatant was transferred to 200 μL methanol or acetonitrile containing internal standard and centrifuged at 3,300 g for 30 minutes. 200 μL aliquots of the supernatants were used for LC-MS/MS analysis. Standards were treated the same as samples.
A BCA Kit was used to determine the protein content for each well. Bovine serum albumin at 2, 1, 0.5, 0.25, 0.125, 0.0625, 0.0313, 0.0156, 0.00781 and 0.00391 mg/mL was prepared in Phosphate Buffer Saline (PBS, pH 7.4). 10 μL of supernatant was mixed from the previous step with the same volume of PBS. 20 μL of standard or test sample was added into 96-well clear plate and mixed with 200 μL working reagent. After 30 minutes incubation at 37° C., the absorbance at 562 nm was measured on the microplate reader.
Standard-curves: prepared 200 μM DMSO Folic acid solution, samples of 1000 nm, 300 nm, 100 nm, 30 nM, and 10 nM prepared using a PH 5.5 buffer, and a PH 5.5 buffer containing 50 μM of pemetrexed, respectively.
All calculations were carried out using Microsoft Excel. Peak areas were determined from extracted ion chromatograms. Uptake rate, in unit of pmol/mg protein/min, is calculated using the following equation: Uptake rate=Conc./(Protein×Time); Conc. is concentration of drug in cell lysate (nM), Protein is the protein concentration of cell lysate (mg/mL), and Time is the incubation time (minute). Uptake ratio is calculated using the following equation: Uptake ratio=Uptake rate without inhibitor/Uptake rate with inhibitor. Note: The compound was considered as a potential substrate of a particular transporter when the uptake ratio was greater than 2.

[3] = target: T1, Folate Uptake Transporter (PCFT) in Caco2 cells; assay: as above; assay type: in vitro ADME; conditions: positive control, test conc. 0.01 μM, radiolabelled
[4] = [3H]-folic acid 10 nM, 30 min pre-incubation, 6 min incubation

inhibition at 50 µM [1, 4]	effect on folate transport / uptake ([1]; pH 5.5)	Percentage inhibition (%) ([1]; test conc. 50 μM, [3H]-folic acid 10 nM, pH 5.5, 30 min pre-incubation, 6 min incubation)	cell permeability [2]	Uptake Ratio(−Inhibitor/+Inhibitor) [2]	Uptake Rate (pmol/mg protein/min) ([3]; DMSO (no inhibitor))	Uptake Ratio(−Inhibitor/+Inhibitor) ([3]; pemetrexed 50 μM)	Uptake Rate (pmol/mg protein/min) ([3]; with pemetrexed 50 μM)	Molecule
25.5%	inhibit folate uptake	25.25%	highly permeable	1.02	–	–	–	Cc1ccc(NC(=O)N2Cc3[nH]cnc3CC2c2nc(-c3ccc4c(c3)OCO4)no2)cc1 (stereo not shown) [MPOL_D_1, 6-(3-(benzo[d][1,3]dioxol-5-yl)-1,2,4-oxadiazol-5-yl)-N-(p-tolyl)-3,4,6,7-tetrahydro-5H-imidazo[4,5-c]pyridine-5-carboxamide]
-18.7%	promoted folate transport	–	highly permeable	0.86	–	–	–	Cc1cccc(-c2noc(C3Cc4nc[nH]c4CN3C(=O)Nc3cccc(F)c3)n2)c1 (stereo not shown) [MPOL_D_2, N-(3-fluorophenyl)-6-(3-(m-tolyl)-1,2,4-oxadiazol-5-yl)-3,4,6,7-tetrahydro-5H-imidazo[4,5-c]pyridine-5-carboxamide]
62.4%	–	–	–	–	–	–	–	Nc1nc2[nH]cc(CCc3ccc(C(=O)N[C@@H](CCC(=O)O)C(=O)O)cc3)c2c(=O)[nH]1 [Pemetrexed, reference compound]
–	–	–	–	–	0.02 pmol/mg protein/min	2.66	0.01 pmol/mg protein/min	Folic acid [3,5,7,9-3H] sodium salt
